From patent US20250120927A1, “CNDP2 MODULATORS AND METHODS FOR THEIR USE” (Metabolon Inc., priority 2023, published 2025)

target: CNDP2 (Homo sapiens (Human), UniProt Q96KP4); assay: CNDP2 enzyme inhibition assay (Met-His hydrolysis, free histidine by o-phthaldialdehyde fluorescence), dose-response; type: biochemical; conditions: 50 nM purified CNDP2 (Sino Biological), 1 mM Met-His substrate, 30 minutes at 37° C.; TABLE 1
Experimental: To identify optimal conditions for identifying novel inhibitors of CNDP2, enzyme assays were performed with varied sources of purified enzyme, concentrations of enzyme, peptide substrates, concentrations of peptide substrates and metal cofactors. […] The reaction mixture was incubated for 30 minutes at 37° C. before it was quenched with an equal volume of 1% TCA. Free histidine was quantified after derivatization with a fluorophore (o-phthaldialdehyde from Sigma-Aldrich, excitation 340 nm, emission 460 nm). The reaction was conducted in an automation-friendly format to meet future screening throughput demands. A histidine titration standard curve was also included to enable conversion of fluorescence signal to molar concentration of histidine released by the hydrolysis reaction and to ensure the linearity of the fluorescence signal vs. free histidine.
Compounds of Formula (I) disclosed herein were screened for potency in inhibiting CNDP2 enzyme activity in a dose-response experiment. Bestatin was included with each batch of test molecules as a benchmark for assay quality control.

Chain of CNDP2 (Q96KP4 whole entry): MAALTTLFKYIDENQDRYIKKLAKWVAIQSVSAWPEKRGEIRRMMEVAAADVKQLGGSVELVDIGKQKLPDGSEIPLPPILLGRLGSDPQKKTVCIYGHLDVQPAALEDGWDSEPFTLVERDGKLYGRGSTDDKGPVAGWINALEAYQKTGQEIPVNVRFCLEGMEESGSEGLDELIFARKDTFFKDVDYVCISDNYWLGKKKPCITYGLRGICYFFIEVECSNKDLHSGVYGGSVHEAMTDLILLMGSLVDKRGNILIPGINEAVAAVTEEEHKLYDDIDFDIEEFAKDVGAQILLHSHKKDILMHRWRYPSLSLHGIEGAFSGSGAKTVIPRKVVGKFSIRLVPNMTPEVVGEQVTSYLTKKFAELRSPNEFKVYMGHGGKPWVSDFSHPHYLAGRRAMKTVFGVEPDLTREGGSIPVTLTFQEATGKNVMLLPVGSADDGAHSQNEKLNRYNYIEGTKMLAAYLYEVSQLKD

| Structure (SMILES) | IC50 [nM] |
| --- | --- |
| N[C@H](Cc1ccccc1)[C@H](O)C(=O)N[C@@H](Cc1ccc(F)cc1)C(=O)O [Compound 1, (S)-2-((2S,3R)-3-amino-2-hydroxy-4-phenylbutanamido)-3-(4-fluorophenyl)propanoic acid] | ≥ 1000 |
| N[C@H](Cc1ccccc1)[C@H](O)C(=O)NC(C(=O)O)c1ccccc1 (stereo partly drawn) [Compound 3, 2-[[(2S,3R)-3-amino-2-hydroxy-4-phenyl-butanoyl]amino]-2-phenyl-acetic acid] | ≥ 1000 |
| N[C@H](Cc1ccccc1)[C@H](O)C(=O)N[C@H](C(=O)O)C1CCCC1 [Compound 4, (2S)-2-[[(2S,3R)-3-amino-2-hydroxy-4-phenyl-butanoyl]amino]-2-cyclopentyl-acetic acid] | 100 to 1000 |
| N[C@H](Cc1ccccc1)[C@H](O)C(=O)N[C@H](C(=O)O)C1CCCCC1 [Compound 5, (2S)-2-[[(2S,3R)-3-amino-2-hydroxy-4-phenyl-butanoyl]amino]-2-cyclohexyl-acetic acid] | 100 to 1000 |
| COc1ccccc1[C@H](NC(=O)[C@@H](O)[C@H](N)Cc1ccccc1)C(=O)O [Compound 8, (2S)-2-[[(2S,3R)-3-amino-2-hydroxy-4-phenyl-butanoyl]amino]-2-(2-methoxyphenyl)acetic acid] | ≥ 1000 |
| N[C@H](Cc1ccccc1)[C@H](O)C(=O)N[C@H](C(=O)O)c1cccnc1 [Compound 9, (2S)-2-[[(2S,3R)-3-amino-2-hydroxy-4-phenyl-butanoyl]amino]-2-(3-pyridyl)acetic acid] | ≥ 1000 |
| N[C@H](Cc1ccccc1)[C@H](O)C(=O)NC(C(=O)O)c1cccc(C(F)(F)F)c1 (stereo partly drawn) [Compound 10, 2-[[(2S,3R)-3-amino-2-hydroxy-4-phenyl-butanoyl]amino]-2-[3-(trifluoromethyl)phenyl]acetic acid] | < 100 |
| N[C@H](Cc1ccccc1)[C@H](O)C(=O)N[C@@H](Cc1ccccc1C(F)(F)F)C(=O)O [Compound 11, 2-[[(2S,3R)-3-amino-2-hydroxy-4-phenyl-butanoyl]amino]-3-[2-(trifluoromethyl)phenyl]propanoic acid] | ≥ 1000 |
| CC(c1ccccc1)[C@H](NC(=O)[C@@H](O)[C@H](N)Cc1ccccc1)C(=O)O (stereo partly drawn) [Compound 14, 2-[[(2S,3R)-3-amino-2-hydroxy-4-phenyl-butanoyl]amino]-3-phenyl-butanoic acid] | ≥ 1000 |
| N[C@H](Cc1ccccc1)[C@H](O)C(=O)NC1(C(=O)O)CCCC1 [Compound 15, 1-[[(2S,3R)-3-amino-2-hydroxy-4-phenyl-butanoyl]amino]cyclopentane carboxylic acid] | ≥ 1000 |
| N[C@H](Cc1ccccc1)[C@H](O)C(=O)NC(Cc1ccc(C(F)(F)F)cc1)C(=O)O (stereo partly drawn) [Compound 16, 2-[[(2S,3R)-3-amino-2-hydroxy-4-phenyl-butanoyl]amino]-3-[4-(trifluoromethyl)phenyl]propanoic acid] | 100 to 1000 |
| N[C@H](Cc1ccccc1)[C@H](O)C(=O)NC(CC1CCCC1)C(=O)O (stereo partly drawn) [Compound 17, 2-[[(2S,3R)-3-amino-2-hydroxy-4-phenyl-butanoyl]amino]-3-cyclopentyl-propanoic acid] | < 100 |
| COc1ccc(C[C@H](NC(=O)[C@@H](O)[C@H](N)Cc2ccccc2)C(=O)O)cc1 [Compound 18, (2S)-2-[[(2S,3R)-3-amino-2-hydroxy-4-phenyl-butanoyl]amino]-3-(4-methoxyphenyl)propanoic acid] | ≥ 1000 |
| N[C@H](Cc1ccccc1)[C@H](O)C(=O)N[C@@H](Cc1ccc(O)cc1)C(=O)O [Compound 19, 2-[[(2S,3R)-3-amino-2-hydroxy-4-phenyl-butanoyl]amino]-3-(4-hydroxyphenyl)propanoic acid] | ≥ 1000 |
| N[C@H](Cc1ccccc1)[C@H](O)C(=O)N[C@H](C(=O)O)C1CCC1 [Compound 20, (2S)-2-[[(2S,3R)-3-amino-2-hydroxy-4-phenyl-butanoyl]amino]-2-cyclobutyl-acetic acid] | ≥ 1000 |
| N[C@H](Cc1ccccc1)[C@H](O)C(=O)N[C@H](C(=O)O)C1CCOCC1 [Compound 21, 2-[[(2S,3R)-3-amino-2-hydroxy-4-phenyl-butanoyl]amino]-2-tetrahydropyran-4-yl-acetic acid] | ≥ 1000 |
| N[C@H](Cc1ccccc1)[C@H](O)C(=O)NC(CC1CC(F)(F)C1)C(=O)O (stereo partly drawn) [Compound 22, 2-[[(2S,3R)-3-amino-2-hydroxy-4-phenyl-butanoyl]amino]-3-(3,3-difluorocyclobutyl)propanoic acid] | ≥ 1000 |
| N[C@H](Cc1ccccc1)[C@H](O)C(=O)NC(CC1CCOCC1)C(=O)O (stereo partly drawn) [Compound 23, 2-[[(2S,3R)-3-amino-2-hydroxy-4-phenyl-butanoyl]amino]-3-tetrahydropyran-4-yl-propanoic acid] | < 100 |
| CCC(c1ccccc1)C(NC(=O)[C@@H](O)[C@H](N)Cc1ccccc1)C(=O)O (stereo partly drawn) [Compound 24, 2-[[(2S,3R)-3-amino-2-hydroxy-4-phenyl-butanoyl]amino]-3-phenyl-pentanoic acid] | ≥ 1000 |
| N[C@H](Cc1ccccc1)[C@H](O)C(=O)N[C@@H](Cc1ccc(Br)cc1)C(=O)O [Compound 25, 2-[[(2S,3R)-3-amino-2-hydroxy-4-phenyl-butanoyl]amino]-3-(4-bromophenyl)propanoic acid] | < 100 |
| N[C@H](Cc1ccccc1)[C@H](O)C(=O)N[C@@H](Cc1ccccc1Br)C(=O)O [Compound 26, 2-[[(2S,3R)-3-amino-2-hydroxy-4-phenyl-butanoyl]amino]-3-(2-bromophenyl)propanoic acid] | ≥ 1000 |

Further lines, results first:

| IC50 [nM] | Structure (SMILES) |
| --- | --- |
| ≥ 1000 | N[C@H](Cc1ccccc1)[C@H](O)C(=O)NC(C(=O)O)c1ccccc1C(F)(F)F (stereo partly shown) [Compound 27] |
| ≥ 1000 | N[C@H](Cc1ccccc1)[C@H](O)C(=O)NC(C(=O)O)C1CCNCC1 (stereo partly shown) [Compound 29] |
| 100 to 1000 | N[C@H](Cc1ccccc1)[C@H](O)C(=O)NC(C(=O)O)C1CCCCCC1 (stereo partly shown) [Compound 30] |
| < 100 | N[C@H](Cc1ccccc1)[C@H](O)C(=O)N[C@H](C(=O)O)c1cccc(OC(F)(F)F)c1 [Compound 31, (S)-2-((2S,3R)-3-amino-2-hydroxy-4-phenylbutanamido)-2-(3-(trifluoromethoxy)phenyl)acetic acid] |
| ≥ 1000 | COc1cccc(C(NC(=O)[C@@H](O)[C@H](N)Cc2ccccc2)C(=O)O)c1 (stereo partly shown) [Compound 32] |
| ≥ 1000 | N[C@H](Cc1ccccc1)[C@H](O)C(=O)N[C@@H](Cc1cccc(Br)c1)C(=O)O [Compound 33] |
| 100 to 1000 | N[C@H](Cc1ccccc1)[C@H](O)C(=O)N[C@H](C(=O)O)C1CCC(F)(F)CC1 [Compound 34] |
| ≥ 1000 | N[C@H](Cc1ccccc1)[C@H](O)C(=O)N[C@@H](C(=O)O)c1cccc(C(F)(F)F)c1 [Compound 35] |
| < 100 | N[C@H](Cc1ccccc1)[C@H](O)C(=O)N[C@H](C(=O)O)c1cccc(C(F)(F)F)c1 [Compound 36] |
| ≥ 1000 | CC1(C)CC(C(NC(=O)[C@@H](O)[C@H](N)Cc2ccccc2)C(=O)O)CCO1 (stereo partly shown) [Compound 38] |
| ≥ 1000 | CC(C)C[C@H](NC(=O)[C@@H](O)[C@H](N)Cc1ccc(Br)cc1)C(=O)O [Compound 39] |
| ≥ 1000 | CC(C)C[C@H](NC(=O)[C@@H](O)[C@H](N)Cc1ccccc1Br)C(=O)O [Compound 40] |
| ≥ 1000 | CC(C)C[C@H](NC(=O)[C@@H](O)[C@H](N)Cc1cccc(Br)c1)C(=O)O [Compound 41] |
| ≥ 1000 | NC(=O)C(NC(=O)[C@@H](O)[C@H](N)Cc1ccccc1)c1cccc(C(F)(F)F)c1 (stereo partly shown) [Compound 42] |
| ≥ 1000 | N[C@H](Cc1ccccc1)[C@H](O)C(=O)NC(c1cccc(C(F)(F)F)c1)c1nnn[nH]1 (stereo partly shown) [Compound 43] |
| ≥ 1000 | NC(=O)[C@@H](NC(=O)[C@@H](O)[C@H](N)Cc1ccccc1)c1cccc(OC(F)(F)F)c1 [Compound 44] |
| 100 to 1000 | N[C@H](Cc1ccccc1)[C@H](O)C(=O)NC(C(=O)NO)c1cccc(C(F)(F)F)c1 (stereo partly shown) [Compound 45] |
| < 100 | N[C@H](Cc1ccc(Cl)cc1)[C@H](O)C(=O)N[C@H](C(=O)O)c1cccc(C(F)(F)F)c1 [Compound 49] |
| ≥ 1000 | N[C@H](Cc1ccccc1)[C@H](O)C(=O)N[C@H](C(=O)NO)c1cccc(OC(F)(F)F)c1 [Compound 52] |
| 100 to 1000 | N[C@H](Cc1ccccc1)[C@H](O)C(=O)N[C@H](C(=O)NO)c1cccc(OC(F)(F)F)c1 [Compound 53] |
| ≥ 1000 | CS(=O)(=O)NC(=O)C(NC(=O)[C@@H](O)[C@H](N)Cc1ccccc1)c1cccc(C(F)(F)F)c1 (stereo partly shown) [Compound 55] |
| < 100 | N[C@H](Cc1ccccc1)[C@H](O)C(=O)NC(c1cccc(C(F)(F)F)c1)c1n[nH]c(=O)o1 (stereo partly shown) [Compound 56] |
| ≥ 1000 | NC(Cc1cccc(OC(F)(F)F)c1)C(O)C(=O)N[C@H](C(=O)O)c1cccc(OC(F)(F)F)c1 (stereo partly shown) [Compound 57] |
| 100 to 1000 | N[C@H](Cc1ccccc1OC(F)(F)F)[C@H](O)C(=O)N[C@H](C(=O)O)c1cccc(OC(F)(F)F)c1 [Compound 61] |

same assay, conditions: 50 nM purified CNDP2 (Sino Biological), 1 mM Met-His substrate, 30 minutes at 37° C.; TABLE 2

| IC50 [nM] | Structure (SMILES) |
| --- | --- |
| ≥ 1000 | N[C@H](Cc1ccccc1)[C@H](O)C(=O)NC(c1cccc(C(F)(F)F)c1)C(F)(F)C(=O)O (stereo partly shown) [Compound 64] |
| < 100 | N[C@H](Cc1ccccc1)[C@H](O)C(=O)NC(C(=O)O)c1cccc(OC(F)F)c1 (stereo partly shown) [Compound 65] |
| ≥ 1000 | N[C@H](Cc1ccccc1)[C@H](O)C(=O)NC(C(=O)O)c1cc(C(F)(F)F)cc(C(F)(F)F)c1 (stereo partly shown) [Compound 66] |
| ≥ 1000 | N[C@H](Cc1ccccc1)[C@H](O)C(=O)NC(C(=O)O)c1cc(C(F)(F)F)ccc1F (stereo partly shown) [Compound 67] |
